The subject of data set [1] is A549. Put plainly: Antiproliferative activity against human A549 cells by CCK8 assay. Format: functional, cell-based. On the technique in general: Formazan colour is commonly taken as a measure of viable cells.
For data set [2], the system named is K562. Kind of data set: Antiproliferative activity against human K562 cells by CCK8 assay. Format: functional, cell-based.
Data set [3] deals with MDA-MB-231. Put plainly: Antiproliferative activity against human MDA-MB-231 cells by CCK8 assay. Format: functional, cell-based.
Data set [4] deals with MCF7. Kind of data set: Antiproliferative activity against human MCF7 cells by CCK8 assay. Format: functional, cell-based.
Data set [5] in a line: Cytotoxicity against human PBMCs by CCK8 assay. Format: toxicity, cell-based, PBMC.
Data set [6] relates to PANC-1. Kind of data set: Antiproliferative activity against human PANC-1 cells by CCK8 assay. Format: functional, cell-based.
Data set [7] deals with HepG2. Kind of data set: Antiproliferative activity against human HepG2 cells by CCK8 assay. Format: functional, cell-based.

SMILES strings stand for the structures. A value given as a limit tells only on which side of the number the result lay.

In general, IC50 refers to the midpoint of a concentration-inhibition curve. Consider `COC1=CC2[C@@H]3Cc4c(Cl)cc(OC)c(OCCCOC(=O)CCCCC(CCSCc5ccccc5)SCc5ccccc5)c4[C@]2(CCN3C)CC1=O` (stereo partly specified), for which the IC50 in data set [1] was more than 50 µM; in data set [2], 27.4 µM; in data set [3] it was more than 50 µM; in data set [4], more than 50 µM; in data set [5], more than 50 µM; in data set [6], more than 50 µM. In data set [7], the IC50 was more than 50 µM.
With `COC1=CC2[C@@H]3Cc4ccc(OC)c(OCCCCCCOC(=O)CCCCC(CCSCc5ccccc5)SCc5ccccc5)c4[C@]2(CCN3C)CC1=O` (stereo partly specified), the IC50 in data set [1] is 16.2 µM; in data set [2] it was 3.02 µM; in data set [3], more than 50 µM; in data set [4] it was more than 50 µM; in data set [5], more than 50 µM; in data set [6], more than 50 µM. The compound also returned an IC50 in data set [7] of 28.2 µM.
`COC1=CC2[C@@H]3Cc4c(Br)cc(OC)c(O)c4[C@]2(CCN3C)CC1=O` (stereo partly specified): the IC50 in data set [1] is more than 50 µM; in data set [2] it was 33 µM; in data set [3], more than 50 µM; in data set [4], more than 50 µM; in data set [6], more than 50 µM; in data set [7], more than 50 µM.
Regarding `COC1=CC2[C@@H]3Cc4c(Cl)cc(OC)c(OC(=O)CCCCC(CCSCc5ccccc5)SCc5ccccc5)c4[C@]2(CCN3C)CC1=O` (stereo partly specified), the IC50 in data set [1] was more than 50 µM; in data set [2], 26 µM; in data set [3], more than 50 µM; in data set [4], more than 50 µM; in data set [5], more than 50 µM; in data set [6], more than 50 µM. For the same compound, the IC50 in data set [7] is more than 50 µM.
Turning to `COC1=CC2[C@@H]3Cc4ccc(OC)c(OCCOC(=O)CCCCC(CCSCc5ccccc5)SCc5ccccc5)c4[C@]2(CCN3C)CC1=O` (stereo partly specified), the IC50 is 11.6 µM in data set [1]; 158 µM in data set [2]; more than 50 µM in data set [3]; more than 50 µM in data set [4]; more than 50 µM in data set [5]; more than 50 µM in data set [6]. Besides, the midpoint of inhibition in data set [7], the IC50, lay at 47.5 µM.
In the case of `COC1=CC2[C@@H]3Cc4ccc(OC)c(OCCCCOC(=O)CCCCC(CCSCc5ccccc5)SCc5ccccc5)c4[C@]2(CCN3C)CC1=O` (stereo partly specified), the IC50 in data set [1] was 28.6 µM; in data set [2], 5.32 µM; in data set [3] it was more than 50 µM; in data set [4], 46.9 µM; in data set [5], more than 50 µM; in data set [6] it was more than 50 µM. In addition, the midpoint of inhibition in data set [7], the IC50, lay at 36.6 µM.
Consider `COC1=CC2[C@@H]3Cc4c(Cl)cc(OC)c(OCCCCCCOC(=O)CCCCC(CCSCc5ccccc5)SCc5ccccc5)c4[C@]2(CCN3C)CC1=O` (stereo partly specified), for which the IC50 in data set [1] is more than 50 µM; in data set [2], 21.5 µM; in data set [3], more than 50 µM; in data set [4] it was more than 50 µM; in data set [5], more than 50 µM; in data set [6], more than 50 µM. In data set [7], this compound returned an IC50 of more than 50 µM.
On to `COC1=C[C@@H]2[C@@H]3Cc4ccc(OC)c(O)c4[C@]2(CCN3C)CC1=O` [SINOMENINE], for which the IC50 in data set [1] was more than 50 µM; in data set [2], 37.2 µM; in data set [3], more than 50 µM; in data set [4], more than 50 µM; in data set [6], more than 50 µM; in data set [7], more than 50 µM.
`COC1=CC2[C@@H]3Cc4c(Cl)cc(OC)c(O)c4[C@]2(CCN3C)CC1=O` (stereo partly specified): the IC50 in data set [1] was more than 50 µM; in data set [2] it was 39.3 µM; in data set [3], more than 50 µM; in data set [4], more than 50 µM; in data set [6], more than 50 µM; in data set [7], more than 50 µM.
For the compound `O=C(O)CCCCC(CCSCc1ccccc1)SCc1ccccc1` (stereo unspecified) [CPI 613], the IC50 in data set [1], in data set [2], in data set [3], in data set [4], in data set [6] and in data set [7] was more than 50 µM in each case.
Consider `O=c1[nH]cc(F)c(=O)[nH]1` [FLUOROURACIL], for which the IC50 in data set [1] was 34.9 µM; in data set [2], 5.18 µM; in data set [3], more than 50 µM; in data set [4], more than 50 µM; in data set [6], 48.2 µM.

Values taken from ChEMBL document CHEMBL5584203, “Discovery of sinomenine/8-Bis(benzylthio)octanoic acid hybrids as potential anti-leukemia drug candidate via mitochondrial pathway” (Bioorg Med Chem Lett, 2024).
